Laboratory results: patent US6355799B1, “Substituted benzene compounds, process for their preparation, and herbicidal and defoliant compositions containing them” (ISK Americas Incorporated, priority 1997, dated 2002)

Key:
Format in all cases: in vivo
[1] = test system: sicklepod (Cassia obtusifolia, CASOB); assay: Pre-emerge test, greenhouse herbicide activity screening; settings: rating scale 0-100, 14 days after application
In short: (§1)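 Fourteen days after spraying, crop and weed injury was graded visually from 0, no effect, to 100, every plant dead. Test substances were dissolved in acetone and applied at 15–1000 g ai/ha with a flat-fan nozzle. Application was either pre-emergence, one day after sowing, or post-emergence at the 2–3 leaf stage.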

[2] = test system: johnsongrass (Sorghum halepense, SORHA); assay: as above; settings: rating scale 0-100, 14 days after application
In short: as §1

[3] = test system: ivyleaf morningglory (Ipomoea hederacea, IPOHE); assay: as above; settings: rating scale 0-100, 14 days after application
In short: as §1

[4] = test system: barnyardgrass (Echinochloa crus-galli, ECHCG); assay: as above; settings: rating scale 0-100, 14 days after application
In short: as §1

[5] = test system: velvetleaf (Abutilon theophrasti, ABUTH); assay: as above; settings: rating scale 0-100, 14 days after application
In short: as §1

[6] = test system: lambsquarters (Chenopodium album, CHEAL); assay: as above; settings: rating scale 0-100, 14 days after application
In short: as §1

[7] = test system: large crabgrass (Digitaria sanguinalis, DIGSA); assay: as above; settings: rating scale 0-100, 14 days after application
In short: as §1

[8] = test system: green foxtail (Setaria viridis, SETVI); assay: as above; settings: rating scale 0-100, 14 days after application
In short: as §1

[9] = test system: upland rice (Oryza sp., var. Tebonnet, RICE); assay: Pre-emerge test, crop safety; settings: rating scale 0-100, 14 days after application
In short: (§2)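 Plants grown in 10 cm pots of sandy loam mix received acetone-dissolved compounds through a moving flat-fan nozzle. Doses ranged from 15 to 1000 g ai/ha. Pre-emerge pots were seeded one day earlier, post-emerge pots 8–21 days earlier. Fourteen days on, each pot was graded 0–100 for damage.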

[10] = test system: field corn (Zea mays L., var. Dekalb 535, CORN); assay: Pre-emerge test, crop safety; settings: rating scale 0-100, 14 days after application
In short: as §2

[11] = test system: redroot pigweed (Amaranthus retroflexus, AMARE); assay: Pre-emerge test, greenhouse herbicide activity screening; settings: rating scale 0-100, 14 days after application
In short: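 Sandy loam pots; pre-emerge: sown 1 d pre-spray, surface-watered after, then bottom-watered. Post-emerge: sown 8–21 d before, 2–3 leaf stage, + 0.25% v/v NIS, bottom-watered. Acetone, 187 l/ha track spray, 15–1000 g ai/ha. 0–100 injury score, day 14.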

[12] = test system: sicklepod (Cassia obtusifolia, CASOB); assay: Post-emerge test, greenhouse herbicide activity screening; settings: rating scale 0-100 (0 no damage, 100 complete death), 14 days after application
In short: as §2

[13] = test system: common ragweed (Ambrosia artemisizfolia L., AMBEL); assay: as above; settings: rating scale 0-100 (0 no damage, 100 complete death), 14 days after application
In short: as §2

[14] = test system: johnsongrass (Sorghum halepense, SORHA); assay: as above; settings: rating scale 0-100 (0 no damage, 100 complete death), 14 days after application
In short: as §2

[15] = test system: ivyleaf morningglory (Ipomoea hederacea, IPOHE); assay: as above; settings: rating scale 0-100 (0 no damage, 100 complete death), 14 days after application
In short: as §2

[16] = test system: barnyardgrass (Echinochloa crus-galli, ECHCG); assay: as above; settings: rating scale 0-100 (0 no damage, 100 complete death), 14 days after application
In short: as §2

[17] = test system: redroot pigweed (Amaranthus retroflexus, AMARE); assay: as above; settings: rating scale 0-100 (0 no damage, 100 complete death), 14 days after application
In short: as §2

[18] = test system: velvetleaf (Abutilon theophrasti, ABUTH); assay: as above; settings: rating scale 0-100 (0 no damage, 100 complete death), 14 days after application
In short: as §2

[19] = test system: lambsquarters (Chenopodium album, CHEAL); assay: as above; settings: rating scale 0-100 (0 no damage, 100 complete death), 14 days after application
In short: as §2

[20] = test system: large crabgrass (Digitaria sanguinalis, DIGSA); assay: as above; settings: rating scale 0-100 (0 no damage, 100 complete death), 14 days after application
In short: as §2

[21] = test system: green foxtail (Setaria viridis, SETVI); assay: as above; settings: rating scale 0-100 (0 no damage, 100 complete death), 14 days after application
In short: as §2

[22] = test system: upland rice (Oryza sp., var. Tebonnet, RICE); assay: Post-emerge test, crop safety; settings: rating scale 0-100 (0 no damage, 100 complete death), 14 days after application
In short: as §1

[23] = test system: field corn (Zea mays L., var. Dekalb 535, CORN); assay: Post-emerge test, crop safety; settings: rating scale 0-100 (0 no damage, 100 complete death), 14 days after application
In short: as §1

COc1c(Cl)cc(F)c(-n2c(=O)cc(C(F)(F)F)n(C)c2=O)c1CC(C)(Cl)C(=O)OC(C)C (stereo not shown) [14-39]
Pre-emerge herbicidal activity, phytotoxicity rating CASOB ([1]; 63 g ai/ha): 0
Pre-emerge herbicidal activity, phytotoxicity rating CASOB ([1]; 250 g ai/ha): 20
Pre-emerge herbicidal activity, phytotoxicity rating SORHA ([2]; 63 g ai/ha): 0
Pre-emerge herbicidal activity, phytotoxicity rating SORHA ([2]; 250 g ai/ha): 60
Pre-emerge herbicidal activity, phytotoxicity rating IPOHE ([3]; 63 g ai/ha): 0
Pre-emerge herbicidal activity, phytotoxicity rating IPOHE ([3]; 250 g ai/ha): 0
Pre-emerge herbicidal activity, phytotoxicity rating ECHCG ([4]; 63 g ai/ha): 10
Pre-emerge herbicidal activity, phytotoxicity rating ECHCG ([4]; 250 g ai/ha): 95
Pre-emerge herbicidal activity, phytotoxicity rating ABUTH ([5]; 63 g ai/ha): 100
Pre-emerge herbicidal activity, phytotoxicity rating ABUTH ([5]; 250 g ai/ha): 100
Pre-emerge herbicidal activity, phytotoxicity rating CHEAL ([6]; 63 g ai/ha): 100
Pre-emerge herbicidal activity, phytotoxicity rating CHEAL ([6]; 250 g ai/ha): 100
Pre-emerge herbicidal activity, phytotoxicity rating DIGSA ([7]; 63 g ai/ha): 95
Pre-emerge herbicidal activity, phytotoxicity rating DIGSA ([7]; 250 g ai/ha): 100
Pre-emerge herbicidal activity, phytotoxicity rating SETVI ([8]; 63 g ai/ha): 70
Pre-emerge herbicidal activity, phytotoxicity rating SETVI ([8]; 250 g ai/ha): 100
Pre-emerge phytotoxicity rating, crop damage RICE ([9]; 63 g ai/ha): 0
Pre-emerge phytotoxicity rating, crop damage RICE ([9]; 250 g ai/ha): 80
Pre-emerge phytotoxicity rating, crop damage CORN ([10]; 63 g ai/ha): 0
Pre-emerge phytotoxicity rating, crop damage CORN ([10]; 250 g ai/ha): 0
Pre-emerge herbicidal activity, phytotoxicity rating AMARE ([11]; 63 g ai/ha): 100
Pre-emerge herbicidal activity, phytotoxicity rating AMARE ([11]; 250 g ai/ha): 100
Post-emerge Herbicidal Activity, phytotoxicity rating CASOB ([12]; Rate 63 g ai/ha): 60
Post-emerge Herbicidal Activity, phytotoxicity rating CASOB ([12]; Rate 250 g ai/ha): 100
Post-emerge Herbicidal Activity, phytotoxicity rating AMBEL ([13]; Rate 63 g ai/ha): 50
Post-emerge Herbicidal Activity, phytotoxicity rating AMBEL ([13]; Rate 250 g ai/ha): 50
Post-emerge Herbicidal Activity, phytotoxicity rating SORHA ([14]; Rate 63 g ai/ha): 30
Post-emerge Herbicidal Activity, phytotoxicity rating SORHA ([14]; Rate 250 g ai/ha): 40
Post-emerge Herbicidal Activity, phytotoxicity rating IPOHE ([15]; Rate 63 g ai/ha): 20
Post-emerge Herbicidal Activity, phytotoxicity rating IPOHE ([15]; Rate 250 g ai/ha): 50
Post-emerge Herbicidal Activity, phytotoxicity rating ECHCG ([16]; Rate 63 g ai/ha): 100
Post-emerge Herbicidal Activity, phytotoxicity rating ECHCG ([16]; Rate 250 g ai/ha): 100
Post-emerge Herbicidal Activity, phytotoxicity rating AMARE ([17]; Rate 63 g ai/ha): 100
Post-emerge Herbicidal Activity, phytotoxicity rating AMARE ([17]; Rate 250 g ai/ha): 100
Post-emerge Herbicidal Activity, phytotoxicity rating ABUTH ([18]; Rate 63 g ai/ha): 99
Post-emerge Herbicidal Activity, phytotoxicity rating ABUTH ([18]; Rate 250 g ai/ha): 100
Post-emerge Herbicidal Activity, phytotoxicity rating CHEAL ([19]; Rate 63 g ai/ha): 100
Post-emerge Herbicidal Activity, phytotoxicity rating CHEAL ([19]; Rate 250 g ai/ha): 100
Post-emerge Herbicidal Activity, phytotoxicity rating DIGSA ([20]; Rate 63 g ai/ha): 60
Post-emerge Herbicidal Activity, phytotoxicity rating DIGSA ([20]; Rate 250 g ai/ha): 100
Post-emerge Herbicidal Activity, phytotoxicity rating SETVI ([21]; Rate 63 g ai/ha): 95
Post-emerge Herbicidal Activity, phytotoxicity rating SETVI ([21]; Rate 250 g ai/ha): 100
Post-emerge phytotoxicity rating RICE (crop damage) ([22]; Rate 63 g ai/ha): 90
Post-emerge phytotoxicity rating RICE (crop damage) ([22]; Rate 250 g ai/ha): 100
Post-emerge phytotoxicity rating CORN (crop damage) ([23]; Rate 63 g ai/ha): 30
Post-emerge phytotoxicity rating CORN (crop damage) ([23]; Rate 250 g ai/ha): 50
